From DBAASP
Values after ≈ are worked out from the molar mass of the structure shown. Values joined by “and” are separate entries in the source; they are usually repeats but may differ in a detail not shown here. Identical values can stand only once. One block for each compound: values may come before it.

Columns and labels:
Test in all cases: ≥ marks a high value that may be exact or a test limit, other limits are often not marked, values filed in µg/mL are converted to µM
[1] = tested on: Escherichia coli 55B5
[2] = tested on: Escherichia coli UB1005
[3] = tested on: Pseudomonas aeruginosa
[4] = tested on: Salmonella typhimurium
[5] = tested on: Staphylococcus aureus
[6] = tested on: Bacillus licheniformis X39
[7] = tested on: Enterococcus faecalis 981
[8] = tested on: Escherichia coli ATCC 25922
[9] = tested on: Psychrobacter faecalis X29
[10] = tested on: Rhodococcus rhodochrous X15
[11] = tested on: Serratia rubidaea X01
[12] = tested on: Staphylococcus aureus ATCC 25923
[13] = tested on: Staphylococcus carnosus KHS
[14] = tested on: Acinetobacter baumannii Ab1408
[15] = tested on: Acinetobacter baumannii Ab5753
[16] = tested on: Acinetobacter baumannii Ab5755
[17] = tested on: Acinetobacter calcoaceticus
[18] = tested on: Aspergillus nidulans
[19] = tested on: Aspergillus terreus GIM 3.34
[20] = tested on: Bacillus cereus
[21] = tested on: Bacillus pumilus
[22] = tested on: Bacillus subtilis
[23] = tested on: Candida albicans ATCC 2002
[24] = tested on: Chaetomium globosum
[25] = tested on: Enterococcus faecium
[26] = tested on: Escherichia coli Ec513
[27] = tested on: Escherichia coli K-12
[28] = tested on: Escherichia coli K88
[29] = tested on: Escherichia coli O78
[30] = tested on: Escherichia coli
[31] = tested on: Pseudomonas aeruginosa ATCC 27853
[32] = tested on: Pseudomonas aeruginosa Pa1409
[33] = tested on: Pseudomonas aeruginosa Pa4216
[34] = tested on: Pseudomonas luteola
[35] = tested on: Saccharibacillus kuerlensis
[36] = tested on: Salmonella enterica subsp. enterica serovar Choleraesuis CMCC 50020
[37] = tested on: Salmonella enterica subsp. enterica serovar Enteritidis CMCC 50041
[38] = tested on: Salmonella enterica subsp. enterica serovar Typhi
[39] = tested on: Salmonella typhimurium CMCC 50013
[40] = tested on: Serratia marcescens MA
[41] = tested on: Serratia marcescens SA
[42] = tested on: Sphingobacterium siyangense
[43] = tested on: Staphylococcus aureus 08031002
[44] = tested on: Staphylococcus aureus 08031013
[45] = tested on: Staphylococcus aureus 08032706
[46] = tested on: Staphylococcus aureus 08032712
[47] = tested on: Staphylococcus aureus 08032810
[48] = tested on: Staphylococcus aureus 08A865
[49] = tested on: Staphylococcus aureus 08A875
[50] = tested on: Staphylococcus aureus ATCC 2592
[51] = tested on: Staphylococcus aureus Sa1390
[52] = tested on: Staphylococcus epidermidis ATCC 12228
[53] = tested on: Staphylococcus aureus 930918-3
[54] = tested on: Staphylococcus aureus ATCC 33591

MIC [1]: 1.8 µM (≈ 4.47 µg/mL)
MIC [2]: 2.1 µM (≈ 5.21 µg/mL)
MIC [3]: 3 µM (≈ 7.44 µg/mL)
MIC [4]: 4.8 µM (≈ 11.9 µg/mL)
MIC [5]: 55 µM (≈ 136 µg/mL)
Structure (SMILES): CC[C@H](C)[C@H](NC(=O)[C@H](C)N)C(=O)N[C@@H](Cc1cnc[nH]1)C(=O)N[C@@H](CC(N)=O)C(=O)N[C@@H](CC(C)C)C(=O)N[C@@H](C)C(=O)N[C@@H](Cc1cnc[nH]1)C(=O)N[C@@H](CCCCN)C(=O)N[C@@H](CC(C)C)C(=O)N[C@@H](CC(C)C)C(=O)N[C@@H](CCCCN)C(=O)N[C@@H](CCCCN)C(=O)N[C@@H](CC(C)C)C(=O)N[C@H](C(=O)N[C@@H](CCCN=C(N)N)C(=O)N[C@@H](C)C(=O)N[C@H](C(=O)N[C@@H](CCCCN)C(=O)N[C@@H](CCCCN)C(=O)N[C@@H](CC(C)C)C(=O)N[C@@H](C)C(=O)N[C@@H](CC(N)=O)C(=O)O)C(C)C)[C@@H](C)O [AIHNLAHKLLKKLTRAVKKLAN]

MIC [6]: 9 µM (≈ 23.4 µg/mL)
MIC [7]: ≥ 75 µM
MIC [8]: 150 µM (≈ 391 µg/mL)
MIC [9]: 4.5 µM (≈ 11.7 µg/mL)
MIC [10]: 2.3 µM (≈ 5.99 µg/mL)
MIC [11]: 9 µM (≈ 23.4 µg/mL)
MIC [12]: 19 µM (≈ 49.5 µg/mL)
MIC [13]: 19 µM (≈ 49.5 µg/mL)
Structure (SMILES): CC[C@H](C)[C@H](NC(=O)[C@H](CC(C)C)NC(=O)[C@@H](NC(=O)[C@@H]1CCCN1C(=O)[C@@H](NC(=O)[C@@H](NC(=O)[C@H](CC(N)=O)NC(=O)[C@H](CO)NC(=O)[C@H](C)NC(=O)[C@@H](NC(=O)[C@H](CC(N)=O)NC(=O)[C@H](CC(C)C)NC(=O)[C@H](CC(C)C)NC(=O)[C@@H](NC(=O)[C@H](CO)NC(=O)[C@H](CC(C)C)NC(=O)[C@@H](N)Cc1ccccc1)[C@@H](C)O)C(C)C)C(C)C)C(C)C)[C@@H](C)O)C(=O)N[C@H]1CSSC[C@@H](C(=O)O)NC(=O)[C@H](CCCCN)NC(=O)[C@H](CCCCN)NC(=O)[C@H]([C@@H](C)O)NC(=O)[C@H]([C@@H](C)CC)NC(=O)[C@H](CCCCN)NC1=O [FLSTLLNVASNVVPTLICKITKKC]

Structure (SMILES): CC[C@H](C)[C@H](NC(=O)[C@@H](NC(=O)[C@H](CCCN=C(N)N)NC(=O)[C@@H]1CCCN1C(=O)[C@H](CCCCN)NC(=O)[C@H](CCCCN)NC(=O)[C@H](Cc1ccccc1)NC(=O)[C@H](Cc1ccccc1)NC(=O)[C@H](CCC(=O)O)NC(=O)[C@H](CCCCN)NC(=O)[C@H](C)NC(=O)[C@H](CCCN=C(N)N)NC(=O)[C@H](CCCCN)NC(=O)[C@H](CCCCN)NC(=O)[C@@H](NC(=O)[C@H](CO)NC(=O)[C@H](CCCCN)NC(=O)[C@H](CCCCN)NC(=O)[C@H](CC(C)C)NC(=O)[C@H](CCCCN)NC(=O)[C@H](CCCN=C(N)N)NC(=O)[C@H](Cc1ccccc1)NC(=O)[C@H](Cc1ccccc1)NC(=O)[C@@H](N)CCCCN)C(C)C)C(C)C)C(=O)NCC(=O)N[C@H](C(=O)N[C@@H](CO)C(=O)N[C@H](C(=O)N1CCC[C@H]1C(=O)N[C@@H](Cc1ccccc1)C(=O)O)[C@@H](C)CC)C(C)C [KFFRKLKKSVKKRAKEFFKKPRVIGVSIPF]
MIC [14]: 4.4 µM (≈ 16 µg/mL)
MIC [15]: 4.4 µM (≈ 16 µg/mL)
MIC [16]: 1.1 µM (≈ 4 µg/mL)
MIC [17]: 0.632 µM (≈ 2.3 µg/mL)
MIC [18]: 5.14 µM (≈ 18.7 µg/mL)
MIC [19]: 5.14 µM (≈ 18.7 µg/mL)
MIC [20]: 0.33 µM (≈ 1.2 µg/mL)
MIC [21]: 2.58 µM (≈ 9.4 µg/mL)
MIC [22]: 2.58 µM (≈ 9.4 µg/mL)
MIC [23]: 1.29 µM and 0.66 µM
MIC [24]: 10.3 µM (≈ 37.5 µg/mL)
MIC [25]: ≥ 41.2 µM
MIC [8]: 0.632 µM (≈ 2.3 µg/mL)
MIC [26]: 2.2 µM (≈ 8 µg/mL)
MIC [27]: 0.275 µM (≈ 1 µg/mL)
MIC [28]: 1.1 µM (≈ 4 µg/mL)
MIC [29]: 4.4 µM (≈ 16 µg/mL)
MIC [30]: 0.323 µM (≈ 1.17 µg/mL)
MIC [31]: 0.33 µM and > 0.165 µM
MIC [32]: 2.2 µM (≈ 8 µg/mL)
MIC [33]: 1.1 µM (≈ 4 µg/mL)
MIC [3]: 3.64 µM (≈ 13.3 µg/mL)
MIC [34]: 0.33 µM (≈ 1.2 µg/mL)
MIC [35]: 1.29 µM (≈ 4.7 µg/mL)
MIC [36]: 0.55 µM (≈ 2 µg/mL)
MIC [37]: 1.1 µM (≈ 4 µg/mL)
MIC [38]: 0.33 µM (≈ 1.2 µg/mL)
MIC [39]: 1.1 µM (≈ 4 µg/mL)
MIC [40]: ≥ 110 µM
MIC [41]: ≥ 110 µM
MIC [42]: 2.58 µM (≈ 9.4 µg/mL)
MIC [43]: 27.5 µM (≈ 100 µg/mL)
MIC [44]: 27.5 µM (≈ 100 µg/mL)
MIC [45]: 27.5 µM (≈ 100 µg/mL)
MIC [46]: 27.5 µM (≈ 100 µg/mL)
MIC [47]: 27.5 µM (≈ 100 µg/mL)
MIC [48]: ≥ 110 µM
MIC [49]: 20.6 µM (≈ 75 µg/mL)
MIC [12]: 1.1 µM (≈ 4 µg/mL)
MIC [50]: 1.29 µM and 0.66 µM
MIC [51]: ≥ 35.2 µM
MIC [52]: 2.2 µM (≈ 8 µg/mL)

MIC [53]: 0.95 µM and 1.17 µM
MIC [54]: ≥ 130 µM
Structure (SMILES): CC[C@H](C)[C@H](NC(=O)[C@H](CCCCN)NC(=O)[C@H](CCCCN)NC(=O)[C@H](CC(C)C)NC(=O)[C@H](CCCCN)NC(=O)[C@H](CCC(=O)O)NC(=O)[C@H](CCCCN)NC(=O)[C@@H](NC(=O)[C@H](CCCCN)NC(=O)[C@H](CC(N)=O)NC(=O)[C@H](CCCN=C(N)N)NC(=O)[C@H](Cc1ccccc1)NC(=O)[C@H](CCCCN)NC(=O)[C@@H](N)CCCN=C(N)N)[C@@H](C)CC)C(=O)NCC(=O)O [RKFRNKIKEKLKKIG]
